Entries after “also recorded” stand apart in the source; their conditions may differ.
Tests used:
RRF [1] = biological target: T1, RRF (Escherichia coli, UniProt P0A805); test: RRF reaction: conversion of polysomes to monosomes (sucrose gradient); type: biochemical, E. coli; conditions: for Inhibition of the RRF reaction (conversion of polysomes to monosome): dose response, expressed as percent inhibition
Protocol: The reaction mixture (275 μl) contained 72 ng/ml RRF, 0.4 μg/ml EF-G, 363 nM GTP, 10 mM Tris-Cl, pH 7.4, 8.2 mM MgSO4, […] NH4Cl, 0.3 mM DTT, […] puromycin, 1 A260 polysome of E. coli, and an increasing concentration of sd-G4, as indicated in FIG. 1. The reaction mixture is incubated for 15 min at 30° C., loaded onto a sucrose gradient (15% to 30% in buffer J (Hirashima, A., Kaji, A., Biochemistry 11: 461-471, 1972) and centrifuged at 40,000 rpm for 75 min at 4° C. The ISCO density gradient analyzer monitored sedimentation profiles of the polyribosome. The value is expressed as a percent inhibition calculated from the area of 70S and polysome on those profiles.

[2] = test system: MS2 RNA dependent protein synthesis; test: MS2 RNA dependent protein synthesis in S30 extract; type: biochemical, E. coli; conditions: 7 μM, 8 minute point
Protocol: The reaction mixture (30 μl) contains 12 μl S30 (Kaji, 1968), Premixture (Promega), 2.4 μg MS2 phage RNA (Boehringer Mannheim), 0.1 mM amino acids mixture minus methionine (Promega), 10.1 pmole ^35S-methionine (NEN, 0.6 Ci/μmole), 0.6 A ^260U S30 extract (Promega), and 1, 4, 7, or 10 μM sd-G4 (FIG. 3). The reaction mixture is incubated at 37° C. At various times after the onset of the reaction, hot TCA (trichloroacetic acid) insoluble counts are measured.

[3] = test system: translation of polyuridylic acid (Poly U) into polyphenylalanine; test: Translation of polyuridylic acid (Poly U) into polyphenylalanine in S30 extract; type: biochemical, E. coli; conditions: as high as 10 μM
Protocol: The reaction mixture (30 μl) contains 12 μl S30, Premixture (Promega), 20 μM ^14C-phenylalanine (Amersham, 450 Ci/mole), 10 mM Mg acetate (MgAc), 0.08 μg/ml polyU (Sigma), 1 A260 unit of E. coli S30 extract (Promega), and 1, 4, 7, or 10 μM sd-G4 (FIG. 4). The reaction mixture is incubated at 37° C. At various periods after the onset of the reaction, hot TCA (trichloroacetic acid) insoluble counts are measured.

RRF [4] = biological target: T1, RRF; test: Release of ribosome-bound deacylated tRNA by RRF; type: biochemical; conditions: 7 μM, various amounts of E. coli polysome
Protocol: The reaction mixture (550 μl) for the RRF reaction contains 0.2 nmole RRF where indicated, 0.2 nmole EF-G, 0.37 μM GTP, 275 μM puromycin, 10 μM sd-G4 where indicated, and various amounts of E. coli polysome (see FIG. 8). The mixture is incubated for 15 min. at 30° C. The released tRNA is separated from the complex with pre-washed Microcon 100 (Millipore, 330× g, 40 min). The filter is washed once by centrifugation with 550 μl of a buffer (10 mM Tris-Cl, pH 7.6, 8.2 mM MgSO4, 80 mM NH4Cl, 0.14 mM DTT) and combined with the filtrate. Separated tRNA solution is concentrated with Microcon 30 (Millipore, 14,000× g, 15 min. twice) to a total volume of 14 μl. The concentrated tRNA is charged with 0.15 μCi of ^14C-amino acids mixture (Amersham, 52 mCi/mg) in 30 μl of the reaction mixture (50 mM Tris-Cl, pH 7.8,10 mM MgAc, 6 mM β-mercaptoethanol, 3 mM ATP, 5 mM phosphoenolpyruvate, 138 μg pyruvate kinase, 33.3 μg aminoacyl tRNA synthetases). Cold (4° C.) TCA (trichloro acetic acid) insoluble radioactivity is measured to estimate the amount of tRNA released. In this experiment, the amount of tRNA released is measured by its capacity to accept an amino acid.

E. coli RRF = E. coli RRF (Escherichia coli, UniProt P0A805); test: Gel retardation assay with E. coli RRF and 32P-end-labeled sd-G4; type: binding; conditions: about 2.4 μM, competed by non-labeled sd-G4, BSA negative control
Protocol: The reaction mixture for the binding of ^32P-end-labeled sd-G4 to RRF (10 μl) contains 8 mM Tris-Cl(pH 7.6), 9.7 mM MgSO4, 81 mM NH4Cl, 1.3 mM DTT, and approximately 2.4 μM of ^32P-end-labeled sd-G4. E. coli RRF, EF-G, polysome, BSA are added as indicated in FIG. 9 and competitor non-labeled sd-G4 is added at ½, 1, 2, and 4 times the concentration of the labeled sd-G4 (FIG. 9). The mixture is incubated at 30° C. for 15 min. 5% Glycerol and one-tenth volume of 25% Ficoll containing xylane cyanol and bromphenol blue is added, and the entire reaction mixture is subjected to 4% polyacrylamide gel (29:1, acrylamide/bisacrylamide) electrophoresis at 10 V/cm with constant recirculation of TBE buffer (89 mM Tris-borate, 2.5 mM EDTA, pH 8.3). The gel is dried onto Whatman 3MM paper and subject to autoradiography.

Swiss Webster male mice = test: Toxicity studies in mice; type: in vivo; conditions: iv, ip
Protocol: Swiss Webster male mice weighing 20-25 grams receive intraperitoneal or intravenous injections of tetra guanylic acid, dissolved in 0.9% sodium chloride, see Table 1 for dosages.
For sd-G4 to be active as a specific inhibitor of RRF sd-G4 must be non-toxic in living organisms. Dosages (20-125 mg/kg) of sd-G4 and its related tetra nucleotides are administered to mice intraperitonially, as well as intraveniously, and neither acute nor chronic toxicity is noted, i.e., no grossly observable changes in growth activity, locomotor activity, food intake, or water intake during an observation period of 25 days. Moreover, no pathological signs are noted at autopsy (Table 1). […] Thus, sd-G4 is best choice for a lead compound in the computer based rational design of the anti RRF agents.

RRF [5] = biological target: T1, RRF; test: RRF reaction: conversion of polysomes to monosomes (sucrose gradient); type: biochemical, E. coli; conditions: 1× RRF (72 ng/ml) vs 2× RRF (144 ng/ml)

T1 sequence (P0A805 whole entry): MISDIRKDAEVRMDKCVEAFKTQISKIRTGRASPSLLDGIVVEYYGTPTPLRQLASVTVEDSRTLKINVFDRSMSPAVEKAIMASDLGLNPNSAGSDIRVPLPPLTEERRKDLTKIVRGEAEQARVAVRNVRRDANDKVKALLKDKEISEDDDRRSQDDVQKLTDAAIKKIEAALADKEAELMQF
Chain of E. coli RRF (P0A805 whole entry): as above

With tetrathymidylic acid the “Inhibition of the RRF reaction (conversion of polysomes to monosome)” value (RRF [1]) was “ineffective”.
For “phospo diester tetraguanylic acid [pd-G4]”, the “Inhibition of the RRF reaction (conversion of polysomes to monosome)” value (RRF [1]) was “not effective in inhibiting RRF” and the “Inhibition of the RRF reaction (conversion of polysomes to monosome)” value (RRF [1]; listed as phosphodiester oligoG) was “retains the ability to inhibit RRF to some extent”.
In the case of tetracytidylic acid, the “Inhibition of the RRF reaction (conversion of polysomes to monosome)” value (RRF [1]) is reported as “ineffective”.
For “phosphorothioate tetradeoxyguanylic acid [sd-G4]”, the “Concentration that significantly inhibited the RRF reaction” value (RRF [1]; 72 ng/ml RRF, 15 min at 30° C.) was 5 µM, the “Inhibition of the RRF reaction (conversion of polysomes to monosome)” value (RRF [1]) was “inhibits the RRF reaction in a dose-dependent manner; also recorded: has inhibitory activity; also recorded: effective” and the “Inhibition of protein synthesis (MS2 phage RNA translation)” value [2] was 50%. The “Polyphenylalanine formation (incorporation of labeled phenylalanine)” value [3] was “does not inhibit”, the “Release of ribosome-bound deacylated tRNA by RRF” value (RRF [4]) was “does not inhibit release of tRNA” and the “Binding to RRF (retarded electrophoretic movement)” value (E. coli RRF) was “binds”. The Visual effect (Swiss Webster male mice; 20 mg-125 mg/kg) was “none” and the “Effect of excess RRF on inhibition of the RRF reaction” value (RRF [5]) was “reduced by addition of more RRF”.
For Tetraadenylic acid, the “Inhibition of the RRF reaction (conversion of polysomes to monosome)” value (RRF [1]) was “ineffective”.
For “riboinosinic tetraphosphate [(RIP)4, reference compound]”, the Visual effect (Swiss Webster male mice; 125 mg/kg) was “none”.
For “deoxyguarylic acid [d-G4, reference compound]”, the Visual effect (Swiss Webster male mice; 125 mg/kg) was “none”.
For 5′ phosphorylated sd-G4 [p sd-G4], the Visual effect (Swiss Webster male mice; 20 mg-125 mg/kg) was “none”.
